Experiments:
[1] = biological target: T1, D(3) dopamine receptor (Homo sapiens, UniProt P35462); experiment: Displacement of [3H]-spiperone from human D3 receptor expressed in CHO cells assessed as inhibition constant; format: cell-based
[2] = biological target: T2, D(4) dopamine receptor (Homo sapiens) (UniProt P21917); experiment: Agonist activity at human D4R assessed as [35S] GTPgammaS binding relative to control; conditions: filed as agonist
T2 sequence (whole entry): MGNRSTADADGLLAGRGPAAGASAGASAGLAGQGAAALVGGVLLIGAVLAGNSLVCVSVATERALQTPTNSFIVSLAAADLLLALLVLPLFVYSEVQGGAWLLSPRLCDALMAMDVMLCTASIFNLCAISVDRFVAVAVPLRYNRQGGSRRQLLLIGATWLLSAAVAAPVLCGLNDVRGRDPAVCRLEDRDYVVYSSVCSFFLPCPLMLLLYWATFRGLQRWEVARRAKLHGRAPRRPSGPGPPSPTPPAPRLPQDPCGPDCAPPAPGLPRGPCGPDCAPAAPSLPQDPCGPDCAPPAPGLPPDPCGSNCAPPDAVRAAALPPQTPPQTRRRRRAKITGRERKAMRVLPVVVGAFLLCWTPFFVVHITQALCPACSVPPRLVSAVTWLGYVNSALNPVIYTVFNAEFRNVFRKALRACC

[3] = biological target: T3, D(4) dopamine receptor (Homo sapiens, UniProt P21917); experiment: Agonist activity at human D4R assessed as [35S] GTPgammaS binding
T3 sequence (P21917 whole entry): T2 sequence (whole entry)

[4] = biological target: T3, D(4) dopamine receptor; experiment: Displacement of [3H]-spiperone from human D4 receptor expressed in CHO-K1 cells assessed as inhibition constant measured after 60 mins; format: cell-based
[5] = biological target: T4, D(2) dopamine receptor (Homo sapiens, UniProt P14416); experiment: Displacement of [3H]-spiperone from human D2 receptor assessed as inhibition constant
[6] = biological target: T1, D(3) dopamine receptor; experiment: Displacement of [3H]-spiperone from human D3 receptor assessed as inhibition constant
[7] = biological target: T4, D(2) dopamine receptor; experiment: Binding affinity to human D2R assessed as inhibition constant
[8] = biological target: T3, D(4) dopamine receptor; experiment: Displacement of [3H]-spiperone from human D4 receptor expressed in CHO cells assessed as inhibition constant; format: cell-based
[9] = biological target: T1, D(3) dopamine receptor; experiment: Binding affinity to human D3R assessed as inhibition constant
[10] = biological target: T4, D(2) dopamine receptor; experiment: Binding affinity to D2R (unknown origin) assessed as inhibition constant
[11] = biological target: T1, D(3) dopamine receptor; experiment: Binding affinity to D3R (unknown origin) assessed as inhibition constant
[12] = biological target: T2, D(4) dopamine receptor (Homo sapiens); experiment: Binding affinity to human D4R at 1 uM relative to control
[13] = biological target: T3, D(4) dopamine receptor; experiment: Agonist activity at human D4R
[14] = biological target: T2, D(4) dopamine receptor (Homo sapiens); experiment: Agonist activity at human D4R at 10 uM relative to control
[15] = biological target: T3, D(4) dopamine receptor; experiment: Displacement of [3H]-spiperone from human D4 receptor expressed in HEK293 cells assessed as inhibition constant; format: cell-based
[16] = biological target: T3, D(4) dopamine receptor; experiment: Binding affinity to D4R (unknown origin) assessed as inhibition constant
[17] = biological target: 5-hydroxytryptamine receptor 2A (Homo sapiens, UniProt P28223); experiment: Binding affinity to 5HT2A receptor (unknown origin) assessed as inhibition constant
[18] = biological target: T4, D(2) dopamine receptor; experiment: Displacement of [3H]-spiperone from human D2 receptor expressed in Sf9 cells assessed as inhibition constant
[19] = biological target: T3, D(4) dopamine receptor; experiment: Agonist activity at D4R (unknown origin) by camp reporter assay
[20] = biological target: T3, D(4) dopamine receptor; experiment: Agonist activity at D4R (unknown origin)
[21] = biological target: T3, D(4) dopamine receptor; experiment: (§1) Displacement of [3H]-nemonapride from human D4 receptor expressed in CHO cells assessed as inhibition constant; format: cell-based
[22] = biological target: T3, D(4) dopamine receptor; experiment: Binding affinity to human D4R assessed as inhibition constant
[23] = biological target: T3, D(4) dopamine receptor; experiment: Displacement of [3H]-methylspiperone from D4 (unknown origin) receptor expressed in HEK293T cells assessed as inhibition constant; format: cell-based
[24] = biological target: T4, D(2) dopamine receptor; experiment: Agonist activity at human D2R expressed in HEK293 cells incubated for 3 mins by FLIPR analysis; format: cell-based
[25] = biological target: T2, D(4) dopamine receptor (Homo sapiens); experiment: as §1; format: cell-based
[26] = biological target: T4, D(2) dopamine receptor; experiment: Binding affinity to human D2R assessed as inhibition constant by Cheng-Prusoff equation analysis

T1 sequence (P35462 whole entry): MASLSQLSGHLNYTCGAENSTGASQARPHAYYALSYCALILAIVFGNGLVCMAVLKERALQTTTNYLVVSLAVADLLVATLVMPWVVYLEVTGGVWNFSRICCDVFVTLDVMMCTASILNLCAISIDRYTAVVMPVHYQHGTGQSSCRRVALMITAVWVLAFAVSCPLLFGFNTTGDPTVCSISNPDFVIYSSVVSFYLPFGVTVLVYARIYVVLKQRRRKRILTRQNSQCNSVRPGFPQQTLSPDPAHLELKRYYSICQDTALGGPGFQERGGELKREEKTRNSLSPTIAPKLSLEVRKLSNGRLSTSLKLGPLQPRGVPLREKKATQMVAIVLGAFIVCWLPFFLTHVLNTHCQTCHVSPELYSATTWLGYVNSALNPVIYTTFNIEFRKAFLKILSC
T4 sequence (P14416 whole entry): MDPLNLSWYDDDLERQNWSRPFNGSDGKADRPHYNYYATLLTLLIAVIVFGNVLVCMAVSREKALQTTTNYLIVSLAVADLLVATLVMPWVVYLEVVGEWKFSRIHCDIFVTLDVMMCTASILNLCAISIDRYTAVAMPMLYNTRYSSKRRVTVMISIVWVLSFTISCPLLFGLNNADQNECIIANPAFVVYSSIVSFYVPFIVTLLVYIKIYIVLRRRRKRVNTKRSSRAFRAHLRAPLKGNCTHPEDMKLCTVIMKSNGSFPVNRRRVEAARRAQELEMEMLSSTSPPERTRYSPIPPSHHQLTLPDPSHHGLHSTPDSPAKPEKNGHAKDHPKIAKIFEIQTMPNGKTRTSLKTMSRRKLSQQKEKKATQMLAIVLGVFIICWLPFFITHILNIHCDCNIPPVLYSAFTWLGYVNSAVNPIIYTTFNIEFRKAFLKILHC
5-hydroxytryptamine receptor 2A, sequence (P28223 whole entry): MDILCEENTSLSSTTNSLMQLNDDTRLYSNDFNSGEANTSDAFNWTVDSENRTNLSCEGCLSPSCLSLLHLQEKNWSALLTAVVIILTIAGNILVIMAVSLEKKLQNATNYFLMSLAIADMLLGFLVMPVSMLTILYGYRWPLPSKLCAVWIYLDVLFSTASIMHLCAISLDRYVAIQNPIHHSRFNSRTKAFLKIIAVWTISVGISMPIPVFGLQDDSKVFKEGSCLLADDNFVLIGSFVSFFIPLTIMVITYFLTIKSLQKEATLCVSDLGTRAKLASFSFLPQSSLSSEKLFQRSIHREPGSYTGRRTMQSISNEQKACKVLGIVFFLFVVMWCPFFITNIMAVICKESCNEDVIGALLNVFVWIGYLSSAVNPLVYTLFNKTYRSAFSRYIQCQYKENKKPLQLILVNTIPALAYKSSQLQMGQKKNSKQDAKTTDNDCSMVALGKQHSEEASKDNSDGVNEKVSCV

COc1ccccc1N1CCN(Cc2ccc3cccccc2-3)CC1
Ki [1]: 0.082 µM
Emax [2]: 54%
EC50 [3]: 0.0037 µM

Clc1ccc2c(c1)N=C(N1CCN(c3ccccc3)CC1)CCN2
Ki [4]: 0.031 µM
Ki [5]: 4.7 µM
Ki [6]: 3.4 µM

N#Cc1[nH]c2ccccc2c1CN1CCN(c2ccccc2)CC1
Ki [7]: 4.9 µM
Ki [8]: 0.00076 µM
Ki [9]: 2.5 µM

CCOC(=O)c1[nH]c2ccc(F)cc2c1CN1CCN(c2ccccc2)CC1
Ki [7]: 22 µM
Ki [8]: 0.0015 µM
Ki [9]: 15 µM

O/N=C/c1c(CN2CCN(c3ccccc3)CC2)[nH]c2ccccc12
Ki [7]: 8.8 µM
Ki [8]: 0.0005 µM
Ki [9]: 3.7 µM

CN(C)[C@@H](CNC(=O)NC[C@H]1Cc2ccccc21)CC1CCCCC1
Ki [10]: > 10 µM
Ki [11]: 5.4 µM

COc1cccc(CCC2=NCCN2CCc2ccccc2)c1
Ki [10]: > 10 µM
Ki [11]: > 10 µM

Clc1ccc2c(c1)N=C(N1CCN(CCCOc3ccccc3)CC1)c1ccccc1N2
Activity [12]: 81%

Cc1ncc(CN2CC=C(c3ccccc3)CC2)c(N)n1
Ki [7]: > 1 µM
EC50 [13]: 0.205 µM
Ki [8]: 0.0052 µM
Ki [9]: > 1 µM
Emax [14]: 36%

Clc1ccc(OCC2CN(Cc3c[nH]c4ncccc34)CCO2)cc1 (centres undefined)
Ki [15]: 0.0015 µM
K [10]: > 1700 nM
Ki [11]: 3.2 µM

NS(=O)(=O)c1ccc(N2CCN(CCC3OCCc4ccccc43)CC2)cc1 (centres undefined)
Ki [16]: 0.0036 µM
Ki [10]: 5.15 µM
Ki [11]: > 2.78 µM

Clc1ccc2c(c1)C(N1CCN(CCc3ccccc3)CC1)=Nc1cccnc1N2
Ki [17]: 0.103 µM

Clc1ccc2c(c1)N=C(N1CCN(CCCCc3ccncc3)CC1)c1ccccc1N2
Activity [12]: 78%

CC(C)Oc1cccnc1N(C)C1CCN(Cc2ccc(I)cc2)CC1
Ki [18]: 0.568 µM

CCOC(=O)c1nn(-c2ccccc2)cc1CN(C)[C@@H]1CCSC1
EC50 [19]: 10.8 µM

Clc1ccc2c(c1)N=C(N1CCN(CCCCc3ccccc3)CC1)c1ccccc1N2
Activity [12]: 82%

COc1cc(Cl)ccc1OCC1CN(Cc2ccc(Cl)cc2)CCO1 (centres undefined)
Ki [8]: 0.0028 µM

CC(=O)O[C@H]1CC(C)(C)C(=C=C/C(C)=C/C=C/C(C)=C/C=C/C=C(C)/C=C/C=C(\C)C(=O)C[C@@]23O[C@]2(C)C[C@@H](O)CC3(C)C)[C@](C)(O)C1
EC50 [19]: 82 µM
EC50 [20]: 16.9 µM

CCOC(=O)N1CCN(Cc2cnn(-c3ccc(Cl)cc3)c2)CC1
Ki [21]: 0.26 µM
Ki [10]: 10.2 µM
Ki [22]: 0.26 µM

COc1ccccc1OCCNCC1COCC(c2ccccc2)(c2ccccc2)O1 (centres undefined)
EC50 [19]: 0.0014 µM
Ki [10]: > 10 µM
Ki [11]: 0.013 µM

OCc1[nH]c2ccccc2c1CN1CCN(c2ccccc2)CC1
Ki [7]: 2.1 µM
Ki [8]: 0.00066 µM
Ki [9]: 3.3 µM

Oc1cccc(OCCNCC2COCC(c3ccccc3)(c3ccccc3)O2)c1 (centres undefined)
Ki [10]: > 10 µM
Ki [11]: 0.0014 µM

CC(C)N1C[C@H](NC(=O)N2Cc3ccccc3[C@@H]2C)[C@@H](C)C1
EC50 [19]: 0.00018 µM
Ki [10]: > 10 µM
Ki [11]: > 10 µM
Ki [23]: 0.0043 µM

c1ccc(N2CCN(Cc3nc4ccccc4[nH]3)CC2)nc1 [ABT-724]
EC50 [24]: 0.012 µM

CCOC(=O)c1sc2[nH]cn/c(=N\[C@H]3CCN(CC)C3)c2c1C
Ki [10]: > 10 µM
Ki [11]: > 10 µM

OCc1ccc(N2CCN(Cc3nc4ccccc4[nH]3)CC2)cc1Cl
K [25]: 3.6 nM
Ki [26]: > 5.88 µM

Reference: ChEMBL document CHEMBL5233263 (Eur J Med Chem, 2021)
